Results as given in ChEMBL document CHEMBL1201862, “PubChem BioAssay data set” (2004).
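Assay format: 96-well plates, 48-hour exposure. GI50 marks 50% less growth.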 Active and inactive are the calls of the source. Cut-off read from the data, not from the text of the source: active = GI50 up to about 1.1 µM and inactive = higher.

What was measured:
Experiment in all cases: NCI tumour cell line growth inhibition, 48 h
NCI-H23 = test system: NCI-H23
HCT-15 = test system: HCT-15
IGROV-1 = test system: IGROV-1
SK-MEL-2 = test system: SK-MEL-2
Hs-578T = test system: Hs-578T
HCT-116 = test system: HCT-116
HT-29 = test system: HT-29
OVCAR-8 = test system: OVCAR-8
RXF 393 = test system: RXF 393
MDA-N = test system: MDA-N
KM12 = test system: KM12
MDA-MB-231 = test system: MDA-MB-231
CAKI-1 = test system: CAKI-1
T47D = test system: T47D
SF-268 = test system: SF-268
SNB-19 = test system: SNB-19
HOP-62 = test system: HOP-62
M14 = test system: M14
RPMI-8226 = test system: RPMI-8226
LOX IMVI = test system: LOX IMVI
OVCAR-5 = test system: OVCAR-5
UACC-257 = test system: UACC-257
HCC 2998 = test system: HCC 2998
SN12C = test system: SN12C
SNB-75 = test system: SNB-75
HL-60 = test system: HL-60
SW-620 = test system: SW-620
ACHN = test system: ACHN
OVCAR-4 = test system: OVCAR-4
DU-145 = test system: DU-145
UACC-62 = test system: UACC-62
NCI-H226 = test system: NCI-H226
TK-10 = test system: TK-10
SK-OV-3 = test system: SK-OV-3
K562 = test system: K562
Malme-3M = test system: Malme-3M
NCI-H460 = test system: NCI-H460
SF-295 = test system: SF-295
BT-549 = test system: BT-549
SK-MEL-28 = test system: SK-MEL-28
OVCAR-3 = test system: OVCAR-3
MDA-MB-435 = test system: MDA-MB-435
U-251 = test system: U-251
SF-539 = test system: SF-539
NCI/ADR-RES = test system: NCI/ADR-RES
A549 = test system: A549
MOLT-4 = test system: MOLT-4
PC-3 = test system: PC-3
CCRF-CEM = test system: CCRF-CEM
786-0 = test system: 786-0
SR = test system: SR
MCF7 = test system: MCF7
COLO 205 = test system: COLO 205
EKVX = test system: EKVX
NCI-H522 = test system: NCI-H522
SK-MEL-5 = test system: SK-MEL-5

Measured: GI50

Cc1c2ccccc2c(C)n2c1nc1cc(Cl)c(Cl)cc12
> 10 µM: HCT-15
active: NCI-H226 29.6 nM | Malme-3M 166 nM | OVCAR-3 163 nM | NCI/ADR-RES 172 nM
inactive: NCI-H23 > 10 µM | IGROV-1 > 10 µM | SK-MEL-2 > 10 µM | Hs-578T > 10 µM | HCT-116 > 10 µM | HT-29 > 10 µM | OVCAR-8 > 10 µM | RXF 393 > 10 µM | MDA-N > 10 µM | KM12 > 10 µM | MDA-MB-231 > 10 µM | CAKI-1 > 10 µM | T47D > 10 µM | SF-268 > 10 µM | SNB-19 > 10 µM | HOP-62 > 10 µM | M14 > 10 µM | RPMI-8226 8.83 µM | LOX IMVI 2.78 µM | OVCAR-5 > 10 µM | UACC-257 > 10 µM | HCC 2998 > 10 µM | SN12C > 10 µM | SNB-75 3.8 µM | HL-60 3.88 µM | SW-620 > 10 µM | ACHN > 10 µM | OVCAR-4 > 10 µM | DU-145 > 10 µM | UACC-62 > 10 µM | TK-10 > 10 µM | SK-OV-3 > 10 µM | K562 > 10 µM | NCI-H460 4.04 µM | SF-295 8.65 µM | BT-549 > 10 µM | SK-MEL-28 > 10 µM | MDA-MB-435 > 10 µM | U-251 > 10 µM | SF-539 > 10 µM | A549 > 10 µM | MOLT-4 2.93 µM | PC-3 > 10 µM | CCRF-CEM > 10 µM | 786-0 6.47 µM | SR > 10 µM | MCF7 1.59 µM | COLO 205 > 10 µM | EKVX > 10 µM | NCI-H522 5.81 µM | SK-MEL-5 > 10 µM
